pKi: −log10 of the molar value.
Biological target: T1, hMC2 receptor (Homo sapiens, UniProt Q01718)
T1 construct: host or cells: CRE-bla-CHO-K1 cells, crude membrane fraction
Assay: hMC2 membrane binding assay ([125I]ACTH (1-39) Tyr23, SPA)
Settings: crude hMC2R membranes from CRE-bla-CHO-K1 cells expressing hMC2 receptor and hMRAP; 0.2 nM [125I]ACTH (1-39) Tyr23; 1.5 hours at room temperature; read-out: MC2R binding potency
Experimental: Crude membrane fractions are prepared from CRE-bla-CHO-K1 cells stably expressing hMC2 receptor and hMRAP accessory protein (Thermo Fisher). The cells are grown to 85-100% confluence on standard tissue culture dishes in GlutaMax DMEM growth media (Gibco) with following additives: 10% dialyzed FBS (Gemini), 0.1 mM NEAA (Gibco), 25 mM HEPES (Gibco), 5 μg/mL blasticidin (Goldbio), 100 μg/mL zeocin (Invitrogen), 600 μg/mL hygromycin (Goldbio). To prepare membranes, cells are scraped and collected in 1× Dulbecco's phosphate buffered saline (Corning) and then pelleted at 1000 RPM's. The cell pellet is reconstituted in membrane preparation buffer (20 mM HEPES, 6 mM MgCl2 and 1 mM EGTA, protease inhibitor tablets (Pierce) adjusted to pH 7.4), homogenized using a dounce homogenizer, and the resulting membrane fraction is pelleted by centrifugation at 12,000 RPM's. The membrane pellet is resuspended in membrane preparation buffer, snap freezed and stored at −80° C. for later use.
The hMC2 membrane binding assay utilizes the following components: radiolabel [^125I]ACTH (1-39) Tyr23 (PerkinElmer), wheat germ agglutinin coated PVT SPA beads (PerkinElmer), crude hMC2R membranes, and compounds. Briefly hMC2R membranes are incubated with SPA beads in binding assay buffer (50 mM HEPES, 5 mM MgCl2, 1 mM CaCl2, 0.2% BSA, protease inhibitor tablets (Pierce) adjusted to pH7.4) prior to assay initiation. A dose response of compound (the final concentration of compound is typically 0-10,000 nM), SPA membranes, and [^125I]ACTH (1-39) Tyr23 at a final concentration of 0.2 nM is plated in a 96-well assay plate and allowed to incubate 1.5 hours at room temperature. Assay plates are read using a Top Count NXT and Ki values for compounds are determined using a GraphPad Prism 6 non-linear regression analysis.

T1 sequence (Q01718 whole entry): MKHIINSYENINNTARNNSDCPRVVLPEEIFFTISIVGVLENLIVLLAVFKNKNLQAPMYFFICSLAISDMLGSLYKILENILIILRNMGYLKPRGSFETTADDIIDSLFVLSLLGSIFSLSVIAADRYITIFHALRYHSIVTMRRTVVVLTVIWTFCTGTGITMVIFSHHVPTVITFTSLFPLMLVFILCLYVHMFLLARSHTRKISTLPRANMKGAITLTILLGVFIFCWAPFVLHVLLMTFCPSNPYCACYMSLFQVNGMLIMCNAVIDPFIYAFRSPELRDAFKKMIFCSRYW
T1 sequence (Q8TCY5 whole entry partner): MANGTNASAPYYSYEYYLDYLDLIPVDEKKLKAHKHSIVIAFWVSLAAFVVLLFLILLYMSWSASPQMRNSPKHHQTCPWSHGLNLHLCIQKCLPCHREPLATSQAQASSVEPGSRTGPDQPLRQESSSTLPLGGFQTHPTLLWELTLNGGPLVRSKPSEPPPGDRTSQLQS

| Molecule | pKi |
| --- | --- |
| 5-{cis-4-[4-chloro-2-(difluoromethyl)phenoxy]-2-cyclopropylpiperidin-1-yl}-2′-ethoxy-N-[(3R)-1-methylpyrrolidin-3-yl]-[2,3′-bipyridine]-6-carboxamide [2-7] | > 8.00 |
| CCOc1ncccc1-c1ccc(N2CC[C@H](Oc3ccc(C(F)(F)F)cc3C#N)C[C@@H]2C2CC2)c(C(=O)N[C@@H]2CCN(C)C2)n1 (mixture of isomers) [2-6, 5-{cis-4-[2-cyano-4-(trifluoromethyl)phenoxy]-2-cyclopropylpiperidin-1-yl}-2′-ethoxy-N-[(3R)-1-methylpyrrolidin-3-yl]-[2,3′-bipyridine]-6-carboxamide] | > 8.00 |
| CCOc1ncccc1-c1ccc(N2CC[C@H](Oc3ccc(C(F)(F)F)nc3C#N)C[C@@H]2C2CC2)c(C(=O)N[C@@H]2CCN(C)C2)n1 (mixture of isomers) [2-14, 5-(cis-4-{[2-cyano-6-(trifluoromethyl)pyridin-3-yl]oxy}-2-cyclopropylpiperidin-1-yl)-2′-ethoxy-N-[(3R)-1-methylpyrrolidin-3-yl]-[2,3′-bipyridine]-6-carboxamide] | > 8.00 |
| CCOc1ncccc1-c1ccc(N2CC[C@H](Oc3ccc(C(F)(F)F)nc3C#N)C[C@@H]2CC)c(C(=O)N[C@@H]2CCN(C)C2)n1 (mixture of isomers) [2-15, 5-(cis-4-{[2-cyano-6-(trifluoromethyl)pyridin-3-yl]oxy}-2-ethylpiperidin-1-yl)-2′-ethoxy-N-[(3R)-1-methylpyrrolidin-3-yl]-[2,3′-bipyridine]-6-carboxamide] | > 8.00 |
| CCOc1ncccc1-c1ccc(N2CC[C@H](Oc3ccc(C)cc3C#N)C[C@@H]2C2CC2)c(C(=O)N[C@@H]2CCN(C)C2)n1 (mixture of isomers) [2-16, 5-[cis-4-(2-cyano-4-methylphenoxy)-2-cyclopropylpiperidin-1-yl]-2′-ethoxy-N-[(3R)-1-methylpyrrolidin-3-yl]-[2,3′-bipyridine]-6-carboxamide] | > 8.00 |
| CCOc1ncccc1-c1ccc(N2CC[C@H](Oc3ccc(C)cc3C#N)C[C@@H]2CC)c(C(=O)N[C@@H]2CCN(C)C2)n1 (mixture of isomers) [2-17, 5-[cis-4-(2-cyano-4-methylphenoxy)-2-ethylpiperidin-1-yl]-2′-ethoxy-N-[(3R)-1-methylpyrrolidin-3-yl]-[2,3′-bipyridine]-6-carboxamide] | > 8.00 |
| CCOc1ncccc1-c1ccc(N2CC[C@H](Oc3ccc(C(F)(F)F)nc3C#N)C[C@@H]2CC)c(C(=O)N[C@@H]2CN3CCC2CC3)n1 (mixture of isomers) [2-19, N-[(3S)-1-azabicyclo[2.2.2]octan-3-yl]-5-(cis-4-{[2-cyano-6-(trifluoromethyl)pyridin-3-yl]oxy}-2-ethylpiperidin-1-yl)-2′-ethoxy-[2,3′-bipyridine]-6-carboxamide] | > 8.00 |
| CCOc1ccccc1-c1ccc(N2CC[C@H](Oc3ccc(Cl)cc3C#N)C[C@@H]2C)c(C(=O)N[C@@H]2CCN(C)C2)n1 (mixture of isomers) [2-24, 3-[cis-4-(4-chloro-2-cyanophenoxy)-2-methylpiperidin-1-yl]-6-(2-ethoxyphenyl)-N-[(3R)-1-methylpyrrolidin-3-yl]pyridine-2-carboxamide] | > 8.00 |
| CCOc1ncccc1-c1ccc(N2CC[C@H](Oc3ccc(F)cc3C#N)C[C@@H]2C2CC2)c(C(=O)N[C@@H]2CCN(C)C2)n1 (mixture of isomers) [2-25, 5-[cis-4-(2-cyano-4-fluorophenoxy)-2-cyclopropylpiperidin-1-yl]-2′-ethoxy-N-[(3R)-1-methylpyrrolidin-3-yl]-[2,3′-bipyridine]-6-carboxamide] | > 8.00 |
| CCOc1ncccc1-c1ccc(N2CC[C@@H](Oc3ccc(C(F)(F)F)cc3C#N)C[C@H]2CC)c(O[C@@H]2CCN(C)C2)n1 (mixture of isomers) [3-8, 2-{[rac-(2R,4R)-1-(2′-ethoxy-6-{[(3R)-1-methylpyrrolidin-3-yl]oxy}-[2,3′-bipyridin]-5-yl)-2-ethylpiperidin-4-yl]oxy}-5-(trifluoromethyl)benzonitrile] | 7.00 to 8.00 |
| CCOc1ncccc1-c1ccc(N2CC[C@@H](Oc3ccc(Cl)cc3C(F)(F)F)C[C@H]2CC)c(O[C@@H]2CCN(C)C2)n1 (mixture of isomers) [3-9, 5-[rac-(2R,4R)-4-[4-chloro-2-(trifluoromethyl)phenoxy]-2-ethylpiperidin-1-yl]-2′-ethoxy-6-{[(3R)-1-methylpyrrolidin-3-yl]oxy}-2,3′-bipyridine] | 7.00 to 8.00 |
| CCOc1ncccc1-c1ccc(N2CC[C@@H](Oc3ccc(C(F)(F)F)cc3C#N)C[C@H]2CC)c(C(=O)N[C@@H]2CCN(C)C2)n1 (racemic) [2-2, 5-[(cis*-4-[2-cyano-4-(trifluoromethyl)phenoxy]-2-ethylpiperidin-1-yl]-2′-ethoxy-N-[(3R)-1-methylpyrrolidin-3-yl]-[2,3′-bipyridine]-6-carboxamide] | > 8.00 |
| CCOc1ncccc1-c1ccc(N2CC[C@H](Oc3ccc(C(F)(F)F)cc3C#N)C[C@H]2C2CC2)c(C(=O)N[C@@H]2CCNC2)n1 (racemic) [2-3, 5-[trans*4-[2-cyano-4-(trifluoromethyl)phenoxy]-2-cyclopropylpiperidin-1-yl]-2′-ethoxy-N-[(3R)-pyrrolidin-3-yl]-[2,3′-bipyridine]-6-carboxamide] | 7.00 to 8.00 |
| CCOc1ncccc1-c1ccc(N2CC[C@H](Oc3ccc(C(F)(F)F)cc3C#N)C[C@H]2C2CC2)c(C(=O)N[C@@H]2CCN(C)C2)n1 (racemic) [2-4, 5-[trans*4-[2-cyano-4-(trifluoromethyl)phenoxy]-2-cyclopropylpiperidin-1-yl]-2′-ethoxy-N-[(3R)-1-methylpyrrolidin-3-yl]-[2,3′-bipyridine]-6-carboxamide] | > 8.00 |
| CCOc1ncccc1-c1ccc(N2CC[C@@H](Oc3ccc(C(F)(F)F)cc3C#N)C[C@H]2C2CC2)c(C(=O)N[C@@H]2CCNC2)n1 (racemic) [2-5, 5-[cis*4-[2-cyano-4-(trifluoromethyl)phenoxy]-2-cyclopropylpiperidin-1-yl]-2′-ethoxy-N-[(3R)-pyrrolidin-3-yl]-[2,3′-bipyridine]-6-carboxamide] | > 8.00 |
| CCOc1ncccc1-c1ccc(N2CC[C@@H](Oc3ccc(Cl)nc3C(F)(F)F)C[C@H]2C2CC2)c(C(=O)N[C@@H]2CCN(C)C2)n1 (racemic) [2-8, 5-[cis*-4-{[6-chloro-2-(trifluoromethyl)pyridin-3-yl]oxy}-2-cyclopropylpiperidin-1-yl]-2′-ethoxy-N-[(3R)-1-methylpyrrolidin-3-yl]-[2,3′-bipyridine]-6-carboxamide] | > 8.00 |
| CCOc1ccc(O[C@@H]2CCN(c3ccc(-c4cccnc4OCC)nc3C(=O)N[C@@H]3CCN(C)C3)[C@H](C3CC3)C2)c(C(F)(F)F)n1 (racemic) [2-13, 5-[cis*-2-cyclopropyl-4-{[6-ethoxy-2-(trifluoromethyl)pyridin-3-yl]oxy}piperidin-1-yl]-2′-ethoxy-N-[(3R)-1-methylpyrrolidin-3-yl]-[2,3′-bipyridine]-6-carboxamide] | > 8.00 |
| CCOc1ncccc1-c1ccc(N2CC[C@@H](Oc3ccc(C(F)(F)F)cc3C#N)C[C@H]2CC)c(C(=O)N[C@@H]2CN3CCC2CC3)n1 (racemic) [2-20, N-[(3S)-1-azabicyclo[2.2.2]octan-3-yl]-5-[cis*-4-[2-cyano-4-(trifluoromethyl)phenoxy]-2-ethylpiperidin-1-yl]-2′-ethoxy-[2,3′-bipyridine]-6-carboxamide] | > 8.00 |
| CCOc1ccccc1-c1ccc(N2CC[C@@H](Oc3ccc(C(F)(F)F)nc3C#N)C[C@H]2C)c(C(=O)N[C@@H]2CCN(C)C2)n1 (racemic) [2-23, 3-(cis*-4-{[2-cyano-6-(trifluoromethyl)pyridin-3-yl]oxy}-2-methylpiperidin-1-yl)-6-(2-ethoxyphenyl)-N-[(3R)-1-methylpyrrolidin-3-yl]pyridine-2-carboxamide] | > 8.00 |
| CCOc1ncccc1-c1ccc(N2CC[C@H](Sc3ccccc3C(F)(F)F)C[C@H]2CC)c(C(=O)N[C@@H]2CCN(C)C2)n1 (racemic) [5-1, rac-2′-ethoxy-5-[(2R,4S)-2-ethyl-4-{[2-(trifluoromethyl)phenyl]sulfanyl}piperidin-1-yl]-N-[(3R)-1-methylpyrrolidin-3-yl]-[2,3′-bipyridine]-6-carboxamide] | > 8.00 |
| CCOc1ncccc1-c1ccc(N2CC[C@H](S(=O)(=O)c3ccccc3C(F)(F)F)C[C@H]2CC)c(C(=O)N[C@@H]2CCN(C)C2)n1 (racemic) [5-2, rac-2′-ethoxy-5-[(2R,4S)-2-ethyl-4-[2-(trifluoromethyl)benzenesulfonyl]piperidin-1-yl]-N-[(3R)-1-methylpyrrolidin-3-yl]-[2,3′-bipyridine]-6-carboxamide] | 6.00 to 7.00 |
